Laboratory results taken from PubChem BioAssay (NCI).
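Where inhibition never reached the appropriate level, the endpoint shown equals the highest concentration tested. Otherwise, values were interpolated linearly from a five-concentration, 48-hour dose response in 96-well plates. GI50 = concentration required for 50% inhibition of growth. TGI: concentration producing complete growth inhibition.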

Experiments:
Experiment in all cases: NCI tumour cell line growth inhibition, 48 h
SNB-19 CNS = test system: SNB-19 CNS
HOP-62 NSCLC = test system: HOP-62 NSCLC
MDA-MB-435 = test system: MDA-MB-435
HT29 colon = test system: HT29 colon
TK-10 renal = test system: TK-10 renal
CAKI-1 renal = test system: CAKI-1 renal
OVCAR-3 ovarian = test system: OVCAR-3 ovarian
BT-549 breast = test system: BT-549 breast
HCT-15 colon = test system: HCT-15 colon
SK-MEL-5 melanoma = test system: SK-MEL-5 melanoma
HCC-2998 colon = test system: HCC-2998 colon
SF-295 CNS = test system: SF-295 CNS
SF-268 CNS = test system: SF-268 CNS
HOP-92 NSCLC = test system: HOP-92 NSCLC
IGROV1 ovarian = test system: IGROV1 ovarian
K-562 leukemia = test system: K-562 leukemia
HL-60(TB) leukemia = test system: HL-60(TB) leukemia
COLO 205 colon = test system: COLO 205 colon
A498 renal = test system: A498 renal
MOLT-4 leukemia = test system: MOLT-4 leukemia
UACC-257 melanoma = test system: UACC-257 melanoma
MDA-MB-231 breast = test system: MDA-MB-231 breast
SNB-75 CNS = test system: SNB-75 CNS
SK-OV-3 ovarian = test system: SK-OV-3 ovarian
OVCAR-5 ovarian = test system: OVCAR-5 ovarian
PC-3 prostate = test system: PC-3 prostate
T-47D breast = test system: T-47D breast
UACC-62 melanoma = test system: UACC-62 melanoma
RXF 393 renal = test system: RXF 393 renal
SK-MEL-2 melanoma = test system: SK-MEL-2 melanoma
CCRF-CEM leukemia = test system: CCRF-CEM leukemia
NCI-H460 lung = test system: NCI-H460 lung
HS 578T breast = test system: HS 578T breast
NCI-H23 lung = test system: NCI-H23 lung
MALME-3M melanoma = test system: MALME-3M melanoma
M14 melanoma = test system: M14 melanoma
A549 NSCLC = test system: A549 NSCLC
HCT-116 colon = test system: HCT-116 colon
SW-620 colon = test system: SW-620 colon
MCF7 breast = test system: MCF7 breast
U251 CNS = test system: U251 CNS
SF-539 CNS = test system: SF-539 CNS
NCI/ADR-RES ovarian = test system: NCI/ADR-RES ovarian
OVCAR-4 ovarian = test system: OVCAR-4 ovarian
EKVX NSCLC = test system: EKVX NSCLC
NCI-H226 lung = test system: NCI-H226 lung
SN12C renal = test system: SN12C renal
SK-MEL-28 melanoma = test system: SK-MEL-28 melanoma
DU-145 prostate = test system: DU-145 prostate
KM12 colon = test system: KM12 colon
SR leukemia = test system: SR leukemia
OVCAR-8 ovarian = test system: OVCAR-8 ovarian

O=C(CSc1nnc(-c2ccc(Cl)cc2)n1-c1ccccc1)Nc1cccc(F)c1
GI50 (SNB-19 CNS): 6.27 µM
TGI (SNB-19 CNS): > 100 µM
GI50 (HOP-62 NSCLC): 3.18 µM
TGI (HOP-62 NSCLC): > 26.4 µM
GI50 (MDA-MB-435): > 100 µM
TGI (MDA-MB-435): > 100 µM
GI50 (HT29 colon): > 27 µM
TGI (HT29 colon): > 100 µM
GI50 (TK-10 renal): 4.65 µM
TGI (TK-10 renal): > 100 µM
GI50 (CAKI-1 renal): 2.89 µM
TGI (CAKI-1 renal): > 100 µM
GI50 (OVCAR-3 ovarian): 4.11 µM
TGI (OVCAR-3 ovarian): 73.9 µM
GI50 (BT-549 breast): > 100 µM
TGI (BT-549 breast): > 100 µM
GI50 (HCT-15 colon): > 100 µM
TGI (HCT-15 colon): > 100 µM
GI50 (SK-MEL-5 melanoma): > 55.4 µM
TGI (SK-MEL-5 melanoma): > 100 µM
GI50 (HCC-2998 colon): > 30.3 µM
TGI (HCC-2998 colon): > 100 µM
GI50 (SF-295 CNS): 3.98 µM
TGI (SF-295 CNS): > 70.6 µM
GI50 (SF-268 CNS): > 21.4 µM
TGI (SF-268 CNS): > 100 µM
GI50 (HOP-92 NSCLC): 4 µM
TGI (HOP-92 NSCLC): > 100 µM
GI50 (IGROV1 ovarian): 3.2 µM
TGI (IGROV1 ovarian): > 100 µM
GI50 (K-562 leukemia): > 100 µM
TGI (K-562 leukemia): > 100 µM
GI50 (HL-60(TB) leukemia): > 100 µM
TGI (HL-60(TB) leukemia): > 100 µM
GI50 (COLO 205 colon): > 100 µM
TGI (COLO 205 colon): > 100 µM
GI50 (A498 renal): 4.5 µM
TGI (A498 renal): 73.9 µM
GI50 (MOLT-4 leukemia): > 100 µM
TGI (MOLT-4 leukemia): > 100 µM
GI50 (UACC-257 melanoma): > 100 µM
TGI (UACC-257 melanoma): > 100 µM
GI50 (MDA-MB-231 breast): 2.36 µM
TGI (MDA-MB-231 breast): > 24.2 µM
GI50 (SNB-75 CNS): 2.09 µM
TGI (SNB-75 CNS): > 30.5 µM
GI50 (SK-OV-3 ovarian): 10.2 µM
TGI (SK-OV-3 ovarian): > 100 µM
TGI (OVCAR-5 ovarian): > 100 µM
GI50 (PC-3 prostate): > 100 µM
TGI (PC-3 prostate): > 100 µM
GI50 (T-47D breast): 1.58 µM
TGI (T-47D breast): > 100 µM
GI50 (UACC-62 melanoma): > 100 µM
TGI (UACC-62 melanoma): > 100 µM
GI50 (RXF 393 renal): 2.86 µM
TGI (RXF 393 renal): > 36 µM
GI50 (SK-MEL-2 melanoma): > 100 µM
TGI (SK-MEL-2 melanoma): > 100 µM
GI50 (CCRF-CEM leukemia): > 100 µM
TGI (CCRF-CEM leukemia): > 100 µM
GI50 (NCI-H460 lung): 1.49 µM
GI50 (HS 578T breast): 3.3 µM
TGI (HS 578T breast): > 100 µM
GI50 (NCI-H23 lung): 5.14 µM
TGI (NCI-H23 lung): > 100 µM
GI50 (MALME-3M melanoma): 3.9 µM
TGI (MALME-3M melanoma): > 100 µM
GI50 (M14 melanoma): > 100 µM
TGI (M14 melanoma): > 100 µM
GI50 (A549 NSCLC): 2.77 µM
TGI (A549 NSCLC): > 100 µM
GI50 (HCT-116 colon): 2.38 µM
TGI (HCT-116 colon): > 100 µM
GI50 (SW-620 colon): 5 µM
TGI (SW-620 colon): > 100 µM
GI50 (MCF7 breast): 3.47 µM
TGI (MCF7 breast): > 100 µM
GI50 (U251 CNS): 1.62 µM
TGI (U251 CNS): 4.46 µM
GI50 (SF-539 CNS): 2.33 µM
TGI (SF-539 CNS): > 22.4 µM
GI50 (NCI/ADR-RES ovarian): 2.26 µM
TGI (NCI/ADR-RES ovarian): 8.77 µM
GI50 (OVCAR-4 ovarian): > 100 µM
TGI (OVCAR-4 ovarian): > 100 µM
GI50 (EKVX NSCLC): > 23 µM
TGI (EKVX NSCLC): > 100 µM
GI50 (NCI-H226 lung): 4.11 µM
TGI (NCI-H226 lung): > 100 µM
GI50 (SN12C renal): 1.91 µM
TGI (SN12C renal): 6.26 µM
GI50 (SK-MEL-28 melanoma): > 100 µM
TGI (SK-MEL-28 melanoma): > 100 µM
GI50 (DU-145 prostate): > 30.3 µM
TGI (DU-145 prostate): > 100 µM
GI50 (KM12 colon): > 21 µM
TGI (KM12 colon): > 100 µM
GI50 (SR leukemia): > 35.3 µM
TGI (SR leukemia): > 100 µM
GI50 (OVCAR-8 ovarian): 3.03 µM
TGI (OVCAR-8 ovarian): > 100 µM
